In patent US11473034B2, “Highly stable and alkaline cleaning solutions and soluble surfactant” (EVONIK OPERATIONS GMBH, priority 2018, dated 2022):

Test: Foaming properties (automated shake test, foam volume relative to solution and foam volume)
Format: physicochemical
Settings: 2 wt % in 45% KOH
From the text: Determining the Foaming Properties of Surfactants
Foaming results from surfactants occupying the air/solution interface to stabilize films of solution that encircle air under agitation. Surfactants may produce more or less foam and contribute to higher or lower stability of these foams. This characteristic of a surfactant may be shown by shaking a tube in a controlled, repeatable fashion (generally through the use of automation) and then measuring the volume of foam in the tube relative to the volume of both foam and solution. Numerous examples of variations on this method may be found in scientific literature, such as Amaral, das Neves, J., Oliveira, Â. Z., and Bahia, M. F., “Foamability of Detergent Solutions Prepared with Different Types of Surfactants and Waters”, Journal of Surfactants and Detergents, 11, 275-278 (2008).
The foaming properties of solutions of Monosodium Cyclohexylamine Dipropionate (Example 1), Monosodium Butyloxypropylamine Dipropionate (Example 2), and 1.5 Sodium Butyloxypropylaminopropylamine Tripropionate (Example 3), prepared as 2 wt % in 45% KOH, were examined. Samples of each solution were shaken vigorously in an automated apparatus to ensure identical treatment of each sample and the volume of foam relative to the total volume of solution and foam was determined.

**Q.** What does the source list for “1.5 Sodium Butyloxypropylaminopropylamine Tripropionate [Example 3]”?
**A.** Foam Volume (as Percentage of Solution and Foam Volume) (1 Minute): 57.5 Percentage of Solution and Foam Volume; Foam Volume (as Percentage of Solution and Foam Volume) (3 Minutes): 53.1 Percentage of Solution and Foam Volume; Foam Volume (as Percentage of Solution and Foam Volume) (Initial): 57.6 Percentage of Solution and Foam Volume
